Laboratory results published in US20110052725A1, “THERAPEUTIC AGENT FOR INFECTIOUS SKIN AND MUCOSAL DISEASE” (priority 2007, published 2011).
Marks after values point to notes of the source that are not given here.

Tests used:
[1] = system: herpesvirus type 1 (HSV1 kos); assay: Antiviral activity against herpesvirus type 1 (TCID50, CRFK cell); format: cell-based
Protocol: An antiviral activity against herpesvirus type 1 (HSV-1, Herpes simplex virus type 1) (virus which causes mainly herpes labialis, and also causes herpetic stomatitis, herpetic keratitis and herpes simplex encephalitis) was measured. The method will be described below.
Five-hundred ml of a culture solution of virus (herpesvirus type 1 kos) which had been cultured with CRFK cell (feline kidney cell) was centrifuged at 3,000 rpm for 3 hours, and to the sediment was added 4 ml of distilled water to thereby prepare a viral suspension. The viral suspension was sterilized by filtration using a 0.45 μm membrane filter, and cryopreserved at −80° C. until its usage.
(§1) Each of the agents was diluted with sterile distilled water, to thereby prepare a dilution series of 1,250 ppm, 125 ppm, 12.5 ppm, 1.25 ppm and 0.125 ppm.
(§2) In order to neutralize chlorine dioxide in the agent, a 0.0025M sodium thiosulfate solution was prepared using Eagle MEM, and sterilized by filtration using a 0.22 μm membrane filter.
(§3) To each of the various concentrations of the agents (240 μl) was added virus (60 μl) and stirred, to thereby sensitize the virus with the agent, for 15, 30, 60, 120 or 180 seconds. Forty μl of virus from each reaction liquid was added to a 0.0025M sodium thiosulfate solution (360 μl), to thereby neutralize chlorine dioxide. As a virus control, one diluted with distilled water, instead of the agent, was used.
(§4) Each of the agent-treated virus liquid and the control virus liquid diluted with distilled water was neutralized with a 0.0025M sodium thiosulfate solution, and then neutralized virus (100 μl) was diluted with Eagle MEM (900 μl), to obtain a 10-fold dilution series of the treated virus.
(§5) CRFK cell (50 μl/well) was incubated in a 96-well microplate for 3 days, and the diluted virus was inoculated therein (50 μl/well, 4 well/dilution). Each cell was cultured in a CO2 incubator at 37° C. for 5 days, and CPE was observed. TCID50 was calculated based on the above-mentioned equation 1 (Kerber's formula).

[2] = system: herpesvirus type 2 (HSV2 UF-strain); assay: Antiviral activity against herpesvirus type 2 (TCID50); format: cell-based
Protocol: as §1, §2, §3, §4, §5
The antiviral activity against herpesvirus type 2 (HSV-2, Herpes simplex virus type 2) (virus which causes mainly genital herpes, neonatal herpes, herpetic meningitis and herpetic myelitis) was measured. Substantially the same test as in Example 10 was performed, except that the herpesvirus type 2 (standard strain; UF strain) was used instead of the herpesvirus type 1.

Question: What does the source list for `OCl` [Sodium hypochlorite]?
Answer: Reduction of viral infectivity titer ([1]; 1 ppm or less): apparent reduction of the infectivity titer was not observed; Reduction of viral infectivity titer ([1]; 10 ppm, 180 seconds): ≤ 1 log; Reduction of viral infectivity titer ([1]; discussion, compared with chlorine dioxide 10 ppm for 15 seconds): apparent reduction of the infectivity titer was not observed; Viral infectivity titer TCID50 ([2]; 0.1 ppm, agent sensitized time 0 second): 4.25 TCID50/50 μL unit (10^n); Viral infectivity titer TCID50 ([2]; 0.1 ppm, agent sensitized time 30 second): 4.25 TCID50/50 μL unit (10^n); Viral infectivity titer TCID50 ([2]; 0.1 ppm, agent sensitized time 60 second): 4.25 TCID50/50 μL unit (10^n); Viral infectivity titer TCID50 ([2]; 0.1 ppm, agent sensitized time 120 second): 4.25 TCID50/50 μL unit (10^n); Viral infectivity titer TCID50 ([2]; 1 ppm, agent sensitized time 0 second): 4.25 TCID50/50 μL unit (10^n); Viral infectivity titer TCID50 ([2]; 1 ppm, agent sensitized time 30 second): 4 TCID50/50 μL unit (10^n); Viral infectivity titer TCID50 ([2]; 1 ppm, agent sensitized time 60 second): 3.75 TCID50/50 μL unit (10^n); Viral infectivity titer TCID50 ([2]; 1 ppm, agent sensitized time 120 second): 3.75 TCID50/50 μL unit (10^n); Viral infectivity titer TCID50 ([2]; 10 ppm, agent sensitized time 0 second): 4.25 TCID50/50 μL unit (10^n); Viral infectivity titer TCID50 ([2]; 10 ppm, agent sensitized time 30 second): 0 TCID50/50 μL unit (10^n); Viral infectivity titer TCID50 ([2]; 10 ppm, agent sensitized time 60 second): 0 TCID50/50 μL unit (10^n); Viral infectivity titer TCID50 ([2]; 10 ppm, agent sensitized time 120 second): 0 TCID50/50 μL unit (10^n)
